Measured values from patent US20230083012A1, “DIHYDROPYRIMIDINE DERIVATIVES AND USES THEREOF IN THE TREATMENT OF HBV INFECTION OR OF HBV-INDUCED DISEASES” (priority 2019, published 2023).

Key:
[1] = Cytotoxicity determination in HepG2.2.15 cells (CCK-8 cell viability); type: cell-based; settings: human, 6 days treatment, CCK-8 assay, highest concentration 100 uM
How it was run: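 HepG2.2.15 cells seeded at 5,000 cells/well in 2% FBS medium, exposed 6 days to compounds (8-point 1:3 dilutions from 100 uM, triplicate), refreshed at day 3. Viability read by CCK-8 after 2.5 h at 37° C, absorbance 450 nm with 630 nm reference; CC50 calculated.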

[2] = tested on: HBV; assay: Anti-HBV activity in HepG2.2.15 cells (HBV DNA in culture medium by qPCR); type: cell-based; settings: Hepatitis B virus, HepG2.2.15, 144 h, HepG2.2.15 cells, 6 days treatment, HBV DNA in culture medium quantified by real-time PCR; read-out: EC50
How it was run: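 HepG2.2.15 cells in 2% FBS medium at 37 °C were treated with compounds for 6 days, with medium and compound refreshed at day 3; 1:3 dilutions, 8 concentrations in triplicate, top 10 or 1 uM. HBV DNA in culture medium quantified by qPCR to derive EC50; CC50 from parallel plates (top 100 uM).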

## CCOC(=O)C1=C(CN2CC(F)(F)[C@H]3[C@@H]2CCN3S(N)(=O)=O)NC(c2nccs2)=N[C@H]1c1cccc(F)c1C (single isomer, unassigned) [Compound 34]
[1]
  CC50 at 6 days: 14300 nM
[2]
  EC50: 12 nM

## CCOC(=O)C1=C(CN2CC(F)(F)[C@@H]3CN(C(=O)[C@@H]4C[C@@H]4C(=O)O)C[C@@H]32)NC(c2nccs2)=N[C@H]1c1cccc(F)c1C (single isomer, unassigned) [Compound 57B]
[1]
  CC50 at 6 days: 51200 nM
[2]
  EC50: 92.2 nM

## CCOC(=O)C1=C(CN2CC(F)(F)[C@@H]3[C@H]2CON3CCC(C)(C)C(=O)O)NC(c2nccs2)=N[C@@H]1c1ccc(F)c(F)c1C (single isomer, unassigned) [Compound 164, (cis)-4-(4-((6-(3,4-difluoro-2-methylphenyl)-5-(ethoxycarbonyl)-2-(thiazol-2-yl)-3,6-dihydropyrimidin-4-yl)methyl)-6,6-difluorohexahydro-1H-pyrrolo[3,2-c]isoxazol-1-yl)-2,2-dimethylbutanoic acid]
[1]
  CC50 at 6 days: > 25000 nM
[2]
  EC50: 3 nM

## CCOC(=O)C1=C(CN2CC(F)(F)[C@H]3[C@@H]2CC(=O)N3CCCC(C)(C)C(=O)O)NC(c2nccs2)=N[C@H]1c1cccc(F)c1C (single isomer, unassigned) [Compound 156]
[1]
  CC50 at 6 days: 10300 nM
[2]
  EC50: 63 nM

## CCOC(=O)C1=C(CN2CC(F)(F)C3CN(C(=O)C(C)(C)C(=O)O)CC32)NC(c2nccs2)=N[C@H]1c1cccc(F)c1C (stereo in doubt) [Compound 9, (cis)-3-(1-(((S)-5-(Ethoxycarbonyl)-6-(3-fluoro-2-methylphenyl)-2-(thiazol-2-yl)-3,6-dihydropyrimidin-4-yl)methyl)-3,3-difluorohexahydropyrrolo[3,4-b]pyrrol-5(1H)-yl)-2,2-dimethyl-3-oxopropanoic acid]
[1]
  CC50 at 6 days: 76300 nM
[2]
  EC50: 41.7 nM

## CCOC(=O)C1=C(CN2CC(F)(F)[C@@H]3[C@H]2CON3CCC(C)(C)C(=O)O)NC(c2nc(C)cs2)=N[C@H]1c1cccc(F)c1C (single isomer, unassigned) [Compound 165, (cis)-4-(4-((5-(ethoxycarbonyl)-6-(3-fluoro-2-methylphenyl)-2-(4-methylthiazol-2-yl)-3,6-dihydropyrimidin-4-yl)methyl)-6,6-difluorohexahydro-1H-pyrrolo[3,2-c]isoxazol-1-yl)-2,2-dimethylbutanoic acid]
[1]
  CC50 at 6 days: > 50000 nM
[2]
  EC50: 8 nM

## CCOC(=O)C1=C(CN2CC(F)(F)[C@H]3[C@@H]2CCN3CCC(C)(C)C(=O)O)NC(c2nccs2)=N[C@@H]1c1ccc(F)c(F)c1C (single isomer, unassigned) [Compound 139, 4-((cis)-4-((6-(3,4-difluoro-2-methylphenyl)-5-(ethoxycarbonyl)-2-(thiazol-2-yl)-3,6-dihydropyrimidin-4-yl)methyl)-6,6-difluorohexahydropyrrolo[3,2-b]pyrrol-1(2H)-yl)-2,2-dimethylbutanoic acid]
[1]
  CC50 at 6 days: 16100 nM
[2]
  EC50: 0.6 nM

## CCOC(=O)C1=C(CN2CC(F)(F)[C@@H]3[C@H]2CN(CC(F)F)N3CCC(C)(C)C(=O)O)NC(c2nccs2)=N[C@H]1c1cccc(F)c1C (single isomer, unassigned) [Compound 91]
[1]
  CC50 at 6 days: 8800 nM
[2]
  EC50: 71 nM

## CCOC(=O)C1=C(CN2CC(F)(F)[C@H]3[C@@H]2CCN3CC23CC(C(=O)O)(C2)C3)NC(c2nccs2)=N[C@H]1c1cccc(F)c1C (single isomer, unassigned) [Compound 155]
[1]
  CC50 at 6 days: 10000 nM
[2]
  EC50: 0.7 nM

## CCOC(=O)C1=C(CN2CC(F)(F)[C@H]3[C@@H]2CCN3C(C)=O)NC(c2nccs2)=N[C@H]1c1cccc(F)c1C (single isomer, unassigned) [Compound 61]
[1]
  CC50 at 6 days: 21500 nM
[2]
  EC50: 37.3 nM

## CCOC(=O)C1=C(CN2CC[C@]3(F)C(=O)N(CC(C)(C)C(=O)O)C[C@H]23)NC(c2nccs2)=N[C@H]1c1cccc(F)c1C (relative stereo) [Compound 3B, 3-(1-(((S)-5-(ethoxycarbonyl)-6-(3-fluoro-2-methylphenyl)-2-(thiazol-2-yl)-3,6-dihydropyrimidin-4-yl)methyl)-3a-fluoro-4-oxohexahydropyrrolo[3,4-b]pyrrol-5(1H)-yl)-2,2-dimethylpropanoic acid]
[1]
  CC50 at 6 days: 51800 nM
[2]
  EC50: 38.7 nM

## CCOC(=O)C1=C(CN2CC(F)(F)[C@@H]3CN(C4(C(=O)O)CC4)C(=O)C32)NC(c2nccs2)=N[C@H]1c1cccc(F)c1C (single isomer, unassigned) [Compound 197]
[1]
  CC50 at 6 days: 26000 nM
[2]
  EC50: 14.2 nM

## CCOC(=O)C1=C(CN2CC(F)(F)[C@H]3[C@@H]2CCN3c2nc(C(=O)O)cs2)NC(c2nccs2)=N[C@H]1c1cccc(F)c1C (single isomer, unassigned) [Compound 124]
[1]
  CC50 at 6 days: 7700 nM
[2]
  EC50: 24.2 nM

## CCOC(=O)C1=C(CN2CC(F)(F)[C@@H]3CN(c4ncc(C(=O)O)cn4)C[C@@H]32)NC(c2nccs2)=N[C@H]1c1cccc(F)c1C (single isomer, unassigned) [Compound 54]
[1]
  CC50 at 6 days: 55200 nM
[2]
  EC50: 49.2 nM

## CCOC(=O)C1=C(CN2CC(F)(F)C3C2CCN3CC(C)(C)C(=O)O)NC(c2nccs2)=N[C@H]1c1cccc(F)c1C (stereo partly drawn) [Compound 1, 3-(4-(((S)-5-(ethoxycarbonyl)-6-(3-fluoro-2-methylphenyl)-2-(thiazol-2-yl)-3,6-dihydropyrimidin-4-yl)methyl)-6,6-difluorohexahydropyrrolo[3,2-b]pyrrol-1(2H)-yl)-2,2-dimethylpropanoic acid]
[1]
  CC50 at 6 days: 24800 nM
[2]
  EC50: 10.6 nM

## CCOC(=O)C1=C(CN2CC(F)(F)C3[C@@H]2CCN3[C@H]2C[C@@](C)(C(=O)O)C2)NC(c2nccs2)=N[C@H]1c1cccc(F)c1C (single isomer, unassigned) [Compound 112B]
[1]
  CC50 at 6 days: 23600 nM
[2]
  EC50: 4.7 nM

## CCOC(=O)C1=C(CN2CC(F)(F)[C@@H]3[C@H]2CON3CCC(C)(C)C(=O)O)NC(c2nccs2)=N[C@H]1c1cccc(F)c1F (single isomer, unassigned) [Compound 173, 4-((cis)-4-((6-(2,3-difluorophenyl)-5-(ethoxycarbonyl)-2-(thiazol-2-yl)-3,6-dihydropyrimidin-4-yl)methyl)-6,6-difluorohexahydro-1H-pyrrolo[3,2-c]isoxazol-1-yl)-2,2-dimethylbutanoic acid]
[1]
  CC50 at 6 days: > 100000 nM
[2]
  EC50: 16 nM

## CCOC(=O)C1=C(CN2CC(F)(F)[C@H]3[C@@H]2CCN3C[C@@H](C)C(=O)O)NC(c2nccs2)=N[C@H]1c1ccc(F)cc1Cl (single isomer, unassigned) [Compound 135A, 3-((cis)-4-((6-(2-chloro-4-fluorophenyl)-5-(ethoxycarbonyl)-2-(thiazol-2-yl)-3,6-dihydropyrimidin-4-yl)methyl)-6,6-difluorohexahydropyrrolo[3,2-b]pyrrol-1(2H)-yl)-2-methylpropanoic acid]
[1]
  CC50 at 6 days: 25900 nM
[2]
  EC50: 2.4 nM

## CCOC(=O)C1=C(CN2CC(F)(F)C3C2CN(C(C)=O)N3CCC(CC)C(=O)O)NC(c2nccs2)=N[C@H]1c1cccc(F)c1C (some centres unmarked) [Compound 78]
[1]
  CC50 at 6 days: 70300 nM
[2]
  EC50: 49 nM

## CCOC(=O)C1=C(CN2CC(F)(F)[C@@H]3[C@H]2CON3C[C@H](CC)C(=O)O)NC(c2nccs2)=N[C@H]1c1cccc(F)c1C (single isomer, unassigned) [Compound 178B]
[1]
  CC50 at 6 days: > 50000 nM
[2]
  EC50: 12 nM

## CCOC(=O)C1=C(CN2CC(F)(F)[C@@H]3CN(CC(C)(C)C(=O)O)C[C@@H]32)NC(c2nccs2)=N[C@H]1c1cccc(F)c1Cl (single isomer, unassigned) [Compound 22B, 3-((cis)-1-((6-(2-chloro-3-fluorophenyl)-5-(ethoxycarbonyl)-2-(thiazol-2-yl)-3,6-dihydropyrimidin-4-yl)methyl)-3,3-difluorohexahydropyrrolo[3,4-b]pyrrol-5(1H)-yl)-2,2-dimethylpropanoic acid]
[1]
  CC50 at 6 days: 70400 nM
[2]
  EC50: 8.9 nM

## CCOC(=O)C1=C(CN2CC(F)(F)C3C2CCN3NCC(C)(C)C(=O)O)NC(c2nccs2)=N[C@H]1c1cccc(F)c1C (some centres unmarked) [Compound 27]
[1]
  CC50 at 6 days: 13900 nM
[2]
  EC50: 42 nM

## CCOC(=O)C1=C(CN2CC(F)(F)[C@@H]3CN(C[C@@H](CC)C(=O)O)C(=O)C32)NC(c2nccs2)=N[C@H]1c1cccc(F)c1C (single isomer, unassigned) [Compound 183A]
[1]
  CC50 at 6 days: 40300 nM
[2]
  EC50: 14.3 nM

## CCOC(=O)C1=C(CN2C[C@H](F)[C@H]3[C@@H]2CCN3CCC(C)(C)C(=O)O)NC(c2nccs2)=N[C@H]1c1cccc(F)c1C (single isomer, unassigned) [Compound 119]
[1]
  CC50 at 6 days: 20200 nM
[2]
  EC50: 55.5 nM

## CCOC(=O)C1=C(CN2CC(F)(F)[C@@H]3C(=O)N(C(=O)NCC(C)(C)C(=O)O)C[C@@H]32)NC(c2nccs2)=N[C@H]1c1cccc(F)c1C (single isomer, unassigned) [Compound 188]
[1]
  CC50 at 6 days: 32100 nM
[2]
  EC50: 62.4 nM

## CCOC(=O)C1=C(CN2CC(F)(F)C3CN(CC(C)(C)C(=O)O)C(=O)C32)NC(c2nccs2)=N[C@H]1c1cccc(F)c1C (some centres unmarked) [Compound 13]
[1]
  CC50 at 6 days: 50000 nM
[2]
  EC50: 8.4 nM

## CCOC(=O)C1=C(CN2CC(F)(F)[C@H]3[C@@H]2CCN3C2CCC(C(=O)O)C2)NC(c2nccs2)=N[C@H]1c1cccc(F)c1C (single isomer, unassigned) [Compound 115]
[1]
  CC50 at 6 days: 24000 nM
[2]
  EC50: 3.1 nM

## CCOC(=O)C1=C(CN2CC(F)(F)[C@@H]3CN(C(=O)NS(C)(=O)=O)C[C@@H]32)NC(c2nccs2)=N[C@H]1c1cccc(F)c1C (single isomer, unassigned) [Compound 31]
[1]
  CC50 at 6 days: 85800 nM
[2]
  EC50: 106 nM
